# Results published in patent US4110327A, “2,3 Diketo-piperazinocarbonylamino alkanoic acids and derivatives” (Toyama Chemical Co., Ltd., priority 1974, dated 1978).
# Columns and labels:
# [1] = Acute toxicity LD50 i.v. in mouse; settings: in vivo, iv
# From the text: The present penicillins and cephalosporins have generally low toxicity.
# Escherichia coli NIHJ = assay: MIC against standard strain, plate method; assay type: cell-based; settings: unit assumed
# How it was run: (§1)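 Minimum inhibitory concentrations were determined on agar plates of heart infusion medium (pH 7.4) inoculated with 10^4 cells per plate.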
# Klebsiella pneumoniae [2] = assay: MIC against standard strain, plate method; assay type: cell-based; settings: unit assumed
# How it was run: as §1
# Proteus vulgaris 3027 = assay: MIC against standard strain, plate method; assay type: cell-based; settings: Proteus vulgaris 3027, standard strain; unit assumed
# How it was run: as §1
# [3] = tested on: Pseudomonas aeruginosa I.F.O.; assay: MIC against standard strain, plate method; assay type: cell-based; settings: unit assumed
# How it was run: as §1
# [4] = tested on: Staphylococcus aureus 209p; assay: MIC against standard strain, plate method; assay type: cell-based; settings: unit assumed
# How it was run: as §1
# Staphylococcus aureus = assay: MIC against clinical isolates; assay type: cell-based; settings: unit assumed
# Escherichia coli = assay: MIC against clinical isolates; assay type: cell-based; settings: unit assumed
# Pseudomonas aeruginosa = assay: MIC against clinical isolates; assay type: cell-based; settings: unit assumed
# Klebsiella pneumoniae [5] = assay: MIC against clinical isolates; assay type: cell-based; settings: unit assumed
# Shigella flexneri = assay: MIC against clinical isolates; assay type: cell-based; settings: unit assumed
# Method: (§2) The minimum inhibitory concentrations (MIC) was determined by the plate method disclosed in "Chemotherapy" (Japan), Vol. 16, (1968), pages 98 - 99. The culture medium used was a Heart infusion agar (pH 7.4). The number of the cells per plate used in the inoculum as 10^4 (10^6 cells/ml).
# (§3) MIC was determined in the same manner as in the preceding paragraph (1).
# Shigella sonnei = assay: MIC against clinical isolates; assay type: cell-based; settings: unit assumed
# Method: as §2, §3
# Salmonella typhi = assay: MIC against clinical isolates; assay type: cell-based; settings: unit assumed
# Salmonella typhi-murium = assay: MIC against clinical isolates; assay type: cell-based; settings: unit assumed
# Proteus mirabilis = assay: MIC against clinical isolates; assay type: cell-based; settings: clinical isolate, unit assumed
# Proteus morganii = assay: MIC against clinical isolates; assay type: cell-based; settings: clinical isolate, unit assumed
# Proteus vulgaris = assay: MIC against clinical isolates; assay type: cell-based; settings: clinical isolate, unit assumed
# Proteus rettgeri = assay: MIC against clinical isolates; assay type: cell-based; settings: clinical isolate, unit assumed
# β-lactamase = assay: Resistant activity against β-lactamase, iodometric assay; assay type: biochemical, Pseudomonas aeruginosa GN 238; settings: relative to Potassium Penicillin G = 100
# How it was run: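 β-Lactamase taken as sonicated-cell supernatant from Pseudomonas aeruginosa GN 238 grown 6 h at 37° C, washed in 0.1 M phosphate pH 7.0. Compound stability to the enzyme measured iodometrically; values relative to potassium penicillin G set at 100.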
smiles,measurement,setting,value
CN1CCN(C(=O)N[C@@H](C(=O)N[C@@H]2C(=O)N3[C@@H]2SC(C)(C)[C@@H]3C(=O)O)c2ccccc2)C(=O)C1=O,LD50,[1],> 5000 mg/kg
"CCCCN1CCN(C(=O)N[C@@H](C(=O)N[C@@H]2C(=O)N3[C@@H]2SC(C)(C)[C@@H]3C(=O)O)c2ccccc2)C(=O)C1=O (single isomer, unassigned) [compound 39]",MIC,Escherichia coli NIHJ,< 0.1 µg/mL
same,MIC,Klebsiella pneumoniae [2],1.57 µg/mL
same,MIC,Proteus vulgaris 3027,0.4 µg/mL
same,MIC,[3],6.25 µg/mL
same,MIC,[4],0.4 µg/mL
same,MIC,Staphylococcus aureus; clinical isolate F-1,6.25 µg/mL
same,MIC,Staphylococcus aureus; clinical isolate F-2,1.57 µg/mL
same,MIC,Staphylococcus aureus; clinical isolate F-3,1.57 µg/mL
same,MIC,Staphylococcus aureus; clinical isolate F-4,6.25 µg/mL
same,MIC,Staphylococcus aureus; clinical isolate F-5,> 200 µg/mL
same,MIC,Staphylococcus aureus; clinical isolate MS 8588,1.57 µg/mL
same,MIC,Staphylococcus aureus; clinical isolate MS 8596,1.57 µg/mL
same,MIC,Staphylococcus aureus; clinical isolate MS 8619,0.79 µg/mL
same,MIC,Staphylococcus aureus; clinical isolate MS 8684,3.13 µg/mL
same,MIC,Staphylococcus aureus; clinical isolate MS 8713,3.13 µg/mL
same,MIC,Escherichia coli; clinical isolate GN 3435,0.79 µg/mL
same,MIC,Escherichia coli; clinical isolate GN 3452,0.79 µg/mL
same,MIC,Escherichia coli; clinical isolate GN 3465,25 µg/mL
same,MIC,Escherichia coli; clinical isolate GN 3481,1.57 µg/mL
same,MIC,Escherichia coli; clinical isolate GN 3611,> 200 µg/mL
same,MIC,Escherichia coli; clinical isolate K-1,1.57 µg/mL
same,MIC,Escherichia coli; clinical isolate K-2,1.57 µg/mL
same,MIC,Escherichia coli; clinical isolate K-3,> 200 µg/mL
same,MIC,Escherichia coli; clinical isolate K-4,0.79 µg/mL
same,MIC,Pseudomonas aeruginosa; clinical isolate GN 82,3.13 µg/mL
same,MIC,Pseudomonas aeruginosa; clinical isolate GN 163,3.13 µg/mL
same,MIC,Pseudomonas aeruginosa; clinical isolate GN 221,3.13 µg/mL
same,MIC,Pseudomonas aeruginosa; clinical isolate GN 376,6.25 µg/mL
same,MIC,Pseudomonas aeruginosa; clinical isolate GN 383,6.25 µg/mL
same,MIC,Pseudomonas aeruginosa; clinical isolate GN 1035,12.5 µg/mL
same,MIC,Pseudomonas aeruginosa; clinical isolate GN 1091,3.13 µg/mL
same,MIC,Pseudomonas aeruginosa; clinical isolate GN 2565,12.5 µg/mL
same,MIC,Pseudomonas aeruginosa; clinical isolate GN 2987,3.13 µg/mL
same,MIC,Pseudomonas aeruginosa; clinical isolate GN (number not given; Table 5-3),6.25 µg/mL
same,MIC,Pseudomonas aeruginosa; clinical isolate S-1,12.5 µg/mL
same,MIC,Pseudomonas aeruginosa; clinical isolate S-2,12.5 µg/mL
same,MIC,Pseudomonas aeruginosa; clinical isolate S-3,25 µg/mL
same,MIC,Pseudomonas aeruginosa; clinical isolate S-4,12.5 µg/mL
same,MIC,Klebsiella pneumoniae [5]; clinical isolate GN 917,1.57 µg/mL
same,MIC,Klebsiella pneumoniae [5]; clinical isolate GN 3850,3.13 µg/mL
same,MIC,Klebsiella pneumoniae [5]; clinical isolate GN 4081,25 µg/mL
same,MIC,Klebsiella pneumoniae [5]; clinical isolate GN 4117,25 µg/mL
same,MIC,Shigella flexneri; clinical isolate JS 11215,25 µg/mL
same,MIC,Shigella flexneri; clinical isolate JS 11839,0.79 µg/mL
same,MIC,Shigella sonnei; clinical isolate JS 11232,25 µg/mL
same,MIC,Shigella sonnei; clinical isolate JS 11755,1.57 µg/mL
same,MIC,Salmonella typhi; clinical isolate SL 819,0.79 µg/mL
same,MIC,Salmonella typhi; clinical isolate SL 2169,0.79 µg/mL
same,MIC,Salmonella typhi-murium; clinical isolate SL 858,0.79 µg/mL
same,MIC,Salmonella typhi-murium; clinical isolate SL 2136,100 µg/mL
same,MIC,Proteus mirabilis,< 0.4 µg/mL
same,MIC,Proteus morganii,< 0.4 µg/mL
same,MIC,Proteus vulgaris,< 0.4 µg/mL
same,MIC,Proteus rettgeri,6.25 µg/mL
same,Relative activity,β-lactamase,15%
